System: PTEN-P2/H2B-GFP mouse prostate cancer cells
Assay: IVM pseudo-orthotopic prostate chamber model, tumor size
Conditions: for Combination efficacy: the drug in combination with Compound I administered orally
Experimental: Male Nude mice (25-35 g body weight) are anesthetized (7.3 mg ketamine hydrochloride and 2.3 mg xylazine/100 g body weight, i.p.) and placed on a heating pad. Two symmetrical titanium frames are implanted into a dorsal skinfold, so as to sandwich the extended double layer of skin. A 15 mm full thickness circular layer is excised. The underlying muscle (M. cutaneous max.) and subcutaneous tissues are covered with a glass coverslip incorporated in one of the frames. After a recovery period of 2-3 days, prostate tissue and cancer cell spheroids are carefully placed in the chamber. Small circular Band Aids are applied on the backside of the chamber after surgery to prevent scratching. Before surgery, Buprenorphine (0.1 mg/kg) is given IP. After surgery Meloxicam is given in the drinking water for 4 days Meloxicam (5.0 mg/ml), is added at 35 μl per 100 ml of water to be medicated.
Mice are anesthetized with 7.3 mg ketamine hydrochloride and 2.3 mg xylazine/100 g body weight, i.p. A lateral incision across the scrotum is made and the testes are individually ligated and excised. The wound is cauterized. The incision is then sutured and sealed with Nexaband® acrylic.
Preparation of tumor spheroids: Liquid overlay plates were generated using 1% molecular biology grade agarose melted in cell culture medium and plated in round bottom 96 well plates at 50 ul/well. Tumor cells grown as pre-confluent monolayers were trypsinized and diluted to a final volume of 1,000,000 cells/ml. Viability was determined by Trypan blue. Cells were placed onto the cooled agarose (70 μl/well) and allowed to compact into spheroids for 24 hours. The spheroids were picked with a pipette and transferred into serum-free media for implantation in the chambers.
IntraVital Microscopy (IVM) can be used to visualize tumors in animals and analyze various aspects of cancer physiology such as tumor vascularization, cell migration and metastasis. An advantage of IVM includes the real-time analysis of dynamic processes with single-cell resolution. IntraVital microscopy offers the possibility to follow tumor growth in a non-invasive, non-destructive manner. The application of IVM can be limited to animal models that bear visually accessible tumors. Therefore, the dorsal skinfold chamber model described above can be compatible with IVM. Using IVM can permit a number of parameters to be measured in living animals and as a function of time, including tumor growth, angiogenesis, infiltration by immune cells, tumor cell migration, mitosis (cell-division) and apoptosis (programmed cell death), all in the context of the host and in real time.
Unless otherwise indicated, Compound I was administered by oral gavage in a sesame oil (Carrier A) formulation. Compound I was dissolved in DMSO then in oil at a concentration of 0.25 mg/ml (weight/volume) with a final DMSO concentration of 0.5% (vol/vol), and administered to mice at 1 mg/kg. In some experiments, Compound I dissolved in a mixture of poly-ethylene glycol/DMSO 30% (w/v) was administered via intra-peritoneal injection.
The efficacy of the formulation of Compound I in Carrier A for oral administration was compared to the previous formulation of Compound I in poly-ethylene glycol (PEG) for intra-peritoneal injection (i.p.). These experiments were performed using Intra Vital Microscopy (IVM) in a pseudo-orthotopic prostate chamber model in which minced prostate tissue is grafted in chambers surgically placed in the dorsal skinfold of mice, and allowed to vascularize. Small tumor cells spheroids were then placed on the prostate tissue, creating a biologically relevant prostatic environment. The tumor cells that express fluorescent H2B-GFP and can be detected in situ and in real-time through the microscopy window of the dorsal chamber.
Epithelial cell lines derived from the prostate tumor of a PTEN-null mouse were used. Mouse prostate cancer cells PTEN-P2 are heterozygous for PTEN deletion and do express protein PTEN.

SMILES | Combination efficacy | further results
C[C@]12CC[C@H](O)CC1=CC[C@@H]1[C@@H]2CC[C@]2(C)C(c3cccnc3)=CC[C@@H]12 [Abiratcrone, (3β)-17-(pyridin-3-yl)androsta-5,16-dien-3-ol, reference compound] | Yes | 
CC(O)(CS(=O)(=O)c1ccc(F)cc1)C(=O)Nc1ccc(C#N)c(C(F)(F)F)c1 (stereo not drawn) [bicalutamide, N-[4-cyano-3-(trifluoromethyl)phenyl]-3-[(4-fluorophenyl)sulfonyl]-2-hydroxy-2-methylpropanamide, reference compound] | No | Effect on tumor size, drug alone (bicalutamide alone, inhibited further tumor growth): did not result in a reduction of initial tumor size
C[C@]12C=CC(=O)N[C@@H]1CC[C@@H]1[C@@H]2CC[C@]2(C)[C@@H](C(=O)Nc3cc(C(F)(F)F)ccc3C(F)(F)F)CC[C@@H]12 [dutasteride, (5α,17β)-N-{2,5-bis(trifluoromethyl)phenyl}-3-oxo-4-azaandrost-1-ene-17-carboxamide, reference compound] | Yes | Tumor size relative to initial size (dutasteride alone): 120%
CNC(=O)c1ccc(N2C(=S)N(c3ccc(C#N)c(C(F)(F)F)c3)C(=O)C2(C)C)cc1F [enzalutamide, (4-(3-(4-cyano-3-(trifluoromethyl)phenyl)-5,5-dimethyl-4-oxo-2-thioxoimidazolidin-1-yl)-2-fluoro-N-methylbenzamide), reference compound] | No | Effect on tumor size, drug alone (enzalutamide alone): did not result in a reduction in tumor size
CCNC(=O)[C@@H]1CCCN1C(=O)[C@H](CCCNC(=N)N)NC(=O)[C@H](CC(C)C)NC(=O)[C@@H](CC(C)C)NC(=O)[C@H](Cc1ccc(O)cc1)NC(=O)[C@H](CO)NC(=O)[C@H](Cc1c[nH]c2ccccc12)NC(=O)[C@H](Cc1c[nH]cn1)NC(=O)[C@@H]1CCC(=O)N1 [leuprolide, 5-oxo-L-prolyl-L-histidyl-L-tryptophyl-L-seryl-L-tyrosyl-D-leucyl-L-leucyl-L-arginyl-N-ethyl-Lprolinamide acetate, reference compound] | Yes | Effect on tumor growth, drug alone (leuprolide alone): arrested tumor growth after 15 days of treatment but did not decrease tumor sizes; Tumor size reached, relative to initial size (leuprolide alone (Lupron depot, 0.187 mg/mouse i.m. once)): 180%
CNC(=O)c1ccc2cc(C3(O)CCn4cncc43)ccc2c1 (stereo not drawn) [orteronel, 6-(7-Hydroxy-6,7-dihydro-5H-pyrrolo[1,2-c]imidazol-7-yl)-N-methyl-naphthalene-2-carboxamide, reference compound] | Yes | Effect on tumor size, drug alone (orteronel alone): did not result in a reduction in tumor size

Reference: patent US20180221306A1, “PHARMACEUTICAL COMPOSITIONS OF 5-HYDROXY-2-METHYLNAPHTHALENE-1,4-DIONE” (PellFiCure Pharmaceuticals, Inc., priority 2016, published 2018)
